The results in this text go back to ChEMBL document CHEMBL1156760, “Synthesis and biological evaluation of new nanomolar competitive inhibitors of Helicobacter pylori type II dehydroquinase. Structural details of the role of the aromatic moieties with essential residues” (J Med Chem, 2010).

The structures appear in SMILES notation.

The target of this experiment is T1, 3-dehydroquinate dehydratase (Helicobacter pylori (strain ATCC 700392 / 26695) (Campylobacterpylori), UniProt Q48255).
T1 sequence (Q48255 whole entry): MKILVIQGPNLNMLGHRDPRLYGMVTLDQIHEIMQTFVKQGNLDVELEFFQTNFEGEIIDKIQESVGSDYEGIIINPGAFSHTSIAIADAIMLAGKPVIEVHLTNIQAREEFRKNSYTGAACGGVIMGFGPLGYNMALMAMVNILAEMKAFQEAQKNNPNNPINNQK
The experiment can be described thus: Inhibition of Helicobacter pylori DHQ2 by UV spectroscopy.

What is called Ki is a measure of affinity in units of concentration, obtained from inhibition or displacement. A lower Ki goes with tighter binding. Turning to `O=C(O)[C@]1(O)C=C(OCc2cc3ccccc3s2)[C@@H](O)[C@H](O)C1`, the Ki worked out at 132 nM.
